≈ marks a conversion by molar mass, not a printed value. Like-named read-outs stand apart in the source and are kept apart here.
Assays:
[1] = acute toxicity; conditions: mouse, in vivo, ICR female mice, observed 7 days
From the text: Each of compounds according to the invention was suspended in 0.1% P-1570 aqueous solution of sugar ester or 0.5% CMC aqueous solution. The suspension abdominally or orally dosed to ICR female mice (weight: 20±1 g).

[2] = system: K.B. carcinoma (KB); experiment: proliferation inhibiting effect in explantation (KB); format: cell-based; conditions: 72 h, 3 days culture with compound, living cells by dye-exclusion (tripan blue)
Method: (§1) Test 1 (proliferation inhibiting effect in explantation)
(§2) Following carcinomata are employed.
(3) K.B. carcinoma (hereinafter referred to as "KB"), and
(§3) 1×10^5 cells of each carcinoma are cultured for 24 hours in an ox serum eagle culture solution with use of a culture test tube and a carbon dioxide gas culturing device (5% CO2, 37° C.). After 24 hours, the used culture solution was flowed-out and each 0.1 ml of a freshly prepared culture solution containing a compound according to the invention was added to further continue the culture for 3 days. After completion of the culture, number of living cells was measured with use of a dye-exclusion method due to tripan blue dying. To each of control groups, 0.1 ml of the same culture solution but containing no compound according to the invention was added.
(§4) Concentrations on 50% inhibition of the carcinoma cells (IC50) were determined between the testing groups and control groups, according to the manner as stated above.

[3] = system: Ehrlich ascites carcinoma (EAC); experiment: proliferation inhibiting effect in explantation (EAC); format: cell-based; conditions: 72 h, 3 days culture with compound, living cells by dye-exclusion (tripan blue)
Method: as §1, §2
(§5) (2) Ehrlich ascites carcinoma (hereinafter referred to as "EAC"),
as §3, §4

[4] = system: B-16 melanoma carcinoma (B-16); experiment: proliferation inhibiting effect in explantation (B-16); format: cell-based; conditions: Mus musculus, B16, 72 h, 3 days culture with compound, living cells by dye-exclusion (tripan blue)
Method: as §1, §2
(§6) (4) B-16 melanoma carcinoma (hereinafter referred to as "B-16").
as §3, §4

[5] = system: B-16 melanoma carcinoma (B-16); experiment: carcinoma cell weight inhibiting effect in mice (B-16); format: in vivo; conditions: BDF mice; oral, 1/5 LD50 one time/day for 5 days; 21 days from final dosage
From the text: as §6
(§7) Test 2 (carcinoma cell weight inhibiting effect in mice)
(§8) B-16 and EAC were given to BDF and ICR-CD mice, respectively by a hypodermic injection. 1.0×10^5 cells on B-16 and 5.0×10^6 cells on EAC were given to each mouse. Each of the compounds according to the invention was orally dosed for 5 days in an amount of 1/5 LD50 (one time/day). After lapsed 21 days from the final dosage, the carcinoma of each mouse was exenterated, measured its weight and calculated a mean weight as the inhibiting ratio which is shown in the following Table.

[6] = system: Ehrlich ascites carcinoma (EAC); experiment: carcinoma cell weight inhibiting effect in mice (EAC); format: in vivo; conditions: ICR-CD mice; oral, 1/5 LD50 one time/day for 5 days; 21 days from final dosage
From the text: as §5, §7, §8

[7] = system: Lewis lung carcinoma (LLC); experiment: proliferation inhibiting effect in explantation (LLC); format: cell-based; conditions: 72 h, 3 days culture with compound, living cells by dye-exclusion (tripan blue)
Method: as §1, §2
(1) Lewis lung carcinoma (hereinafter referred to as "LLC"),
as §3, §4

[8] = ip, abdominal dosage, read-out: Acute Toxicity LD50, Abdominal Dosage
[9] = oral dosage, read-out: Acute Toxicity LD50, Oral Dosage

SMILES: C[Si](C)(C)CCSCCNC1CCCCC1 [SKK-010]
- LD50 at 168 h [1, 8]: 152 mg/kg
- LD50 at 168 h [1, 9]: 825 mg/kg

SMILES: CC(=O)NCCSCC[Si](C)(C)C [SKK-025]
- LD50 at 168 h [1, 8]: ~100 mg/kg
- LD50 at 168 h [1, 9]: 1000 to 2000 mg/kg

SMILES: C=CCNCCSCC[Si](C)(C)C [SKK-011]
- LD50 at 168 h [1, 8]: 134 mg/kg
- LD50 at 168 h [1, 9]: 846 mg/kg

SMILES: CNCCSCC[Si](C)(C)C [SKK-009]
- LD50 at 168 h [1, 8]: 189 mg/kg
- LD50 at 168 h [1, 9]: 800 mg/kg

SMILES: C[Si](C)(C)CCSCCNC(=O)c1ccco1 [SKK-022]
- IC50 [2]: 17 µg/mL (≈ 62.6 µM)
- IC50 [3]: 15 µg/mL (≈ 55.3 µM)
- IC50 [4]: 20 µg/mL (≈ 73.7 µM)
- inhibiting ratio (carcinoma weight), B-16 [5]: 58
- LD50 at 168 h [1, 8]: < 1000 mg/kg
- LD50 at 168 h [1, 9]: > 2000 mg/kg
- inhibiting ratio (carcinoma weight), EAC [6]: 65
- IC50 [7]: 9 µg/mL (≈ 33.2 µM)

SMILES: C[Si](C)(C)CCSCCNC(=O)c1cccs1 [SKK-023]
- LD50 at 168 h [1, 8]: > 1000 mg/kg
- LD50 at 168 h [1, 9]: > 2000 mg/kg

SMILES: Cc1ccc(S(=O)(=O)NCCSCC[Si](C)(C)C)cc1 [SKK-028]
- IC50 [2]: 10 µg/mL (≈ 30.2 µM)
- IC50 [3]: 30 µg/mL (≈ 90.5 µM)
- IC50 [4]: 14 µg/mL (≈ 42.2 µM)
- inhibiting ratio (carcinoma weight), B-16 [5]: 85
- LD50 at 168 h [1, 8]: > 2500 mg/kg
- LD50 at 168 h [1, 9]: > 3000 mg/kg
- inhibiting ratio (carcinoma weight), EAC [6]: 55
- IC50 [7]: 14 µg/mL (≈ 42.2 µM)

SMILES: C[Si](C)(C)CCSCCNC(=O)c1ccccc1 [SKK-012]
- IC50 [2]: 17 µg/mL (≈ 60.4 µM)
- IC50 [3]: 15 µg/mL (≈ 53.3 µM)
- IC50 [4]: 16 µg/mL (≈ 56.8 µM)
- inhibiting ratio (carcinoma weight), B-16 [5]: 62
- LD50 at 168 h [1, 8]: 1190 mg/kg
- LD50 at 168 h [1, 9]: > 2000 mg/kg
- inhibiting ratio (carcinoma weight), EAC [6]: 76
- IC50 [7]: 4.3 µg/mL (≈ 15.3 µM)

SMILES: C[Si](C)(C)CCSCCNC(=O)C1CCCCC1 [SKK-026]
- LD50 at 168 h [1, 8]: 500 to 1000 mg/kg
- LD50 at 168 h [1, 9]: 1000 to 2000 mg/kg

SMILES: C[Si](C)(C)CCSCCNC(=O)c1cccc2ccccc12 [SKK-024]
- IC50 [2]: 14 µg/mL (≈ 42.2 µM)
- IC50 [3]: 18 µg/mL (≈ 54.3 µM)
- IC50 [4]: 25 µg/mL (≈ 75.4 µM)
- inhibiting ratio (carcinoma weight), B-16 [5]: 60
- LD50 at 168 h [1, 8]: > 2000 mg/kg
- LD50 at 168 h [1, 9]: > 3000 mg/kg
- inhibiting ratio (carcinoma weight), EAC [6]: 62
- IC50 [7]: 13 µg/mL (≈ 39.2 µM)

SMILES: C[Si](C)(C)CCSCCNC(=O)c1cccnc1 [SKK-021]
- IC50 [2]: 10 µg/mL (≈ 35.4 µM)
- IC50 [3]: 12 µg/mL (≈ 42.5 µM)
- IC50 [4]: < 5 µg/mL
- inhibiting ratio (carcinoma weight), B-16 [5]: 93
- LD50 at 168 h [1, 8]: < 500 mg/kg
- LD50 at 168 h [1, 9]: > 2000 mg/kg
- inhibiting ratio (carcinoma weight), EAC [6]: 70
- IC50 [7]: 5 µg/mL (≈ 17.7 µM)

SMILES: CCCCCCCC(=O)NCCSCC[Si](C)(C)C [SKK-027]
- LD50 at 168 h [1, 8]: 2000 to 3000 mg/kg
- LD50 at 168 h [1, 9]: > 3000 mg/kg
